Key:
tankyrase 1/2 = assay: Cellular inhibition of tankyrase: increase of Axin2 level in DLD1 cells (Luminex); type: cell-based; details: DLD1 colon carcinoma cells, 24 hours, read-out: EC50 tankyrase 1/2 (cell assay)
Method: Measurement of Cellular Inhibition of Tankyrase
Since Tankyrases have been described to modulate cellular level of Axin2 (Huang et al., 2009; Nature) the increase of Axin2 level is used as read-out for determination of cellular inhibition of Tankyrases in a Luminex based assay.
Cells of the colon carcinoma cell line DLD1 are plated in 96 well plates with 1.5×10^4 cells per well. Next day, cells are treated with a serial dilution of test compound in seven steps as triplicates with a final DMSO concentration of 0.3%. After 24 hours, cells are lysed in lysis buffer (20 mM Tris/HCl pH 8.0, 150 mM NaCl, 1% NP40, 10% Glycerol) and lysates are cleared by centrifugation through a 96 well filter plate (0.65 μm). Axin2 protein is isolated from cell lysates by incubation with a monoclonal anti-Axin2 antibody (R&D Systems #MAB6078) that is bound to fluorescent carboxybeads. Then, bound Axin2 is specifically detected with a polyclonal anti-Axin2 antibody (Cell Signaling #2151) and an appropriate PE-fluorescent secondary antibody. The amount of isolated Axin2 protein is determined in a Luminex^200 machine (Luminex Corporation) according to the manufacturer's instruction by counting 100 events per well. Inhibition of Tankyrase by test compounds results in higher levels of Axin2 which directly correlates with an increase of detectable fluorescence. As controls cells are treated with solvent alone (neutral control) and with a Tankyrase reference inhibitor IWR-2 (3E-06 M) which refers as control for maximum increase of Axin2. For analysis, the obtained data are normalized against the untreated solvent control and fitted for determination of the EC50 values using the Assay Explorer software (Accelrys).

Tankyrase-1 = molecular target: T1, Tankyrase-1 (Homo sapiens, UniProt O95271); assay: Tankyrase 1 autoparsylation assay (HTRF enzyme assay); type: biochemical; details: GST-tagged Tankyrase-1 (1023-1327 aa)
T1 construct: GST-tagged Tankyrase-1 (1023-1327 aa)
Method: (§1) Biochemical activity testing of Tankyrase 1 and 2: Autoparsylation assay
(§2) The autoparsylation assay is run in two steps: the enzymatic reaction in which GST-tagged Tankyrase-1, resp Tankyrase-2 transferred biotinylated ADP-ribose to itself from biotinylated NAD as co-substrate and the detection reaction where a time resolved FRET between cryptate labelled anti-GST bound to the GST tag of the enzyme and Xlent® labelled-streptavidin bound the biotin-parsylation residue is analysed. The autoparsylation activity was detectable directly via the increase in HTRF signal.
(§3) The autoparsylation assay is performed as 384-well HTRF® (Cisbio, Codolet, France) assay format in Greiner low volume nb 384-well microtiter plates and is used for high throughput screen. 250 nM GST-tagged Tankyrase-1 (1023-1327 aa), respectively about 250 nM GST-tagged Tankyrase-2 (873-1166 aa) and 5 μM bio-NAD (Biolog, Life science Inst., Bremen, Germany) as co-substrate are incubated in a total volume of 5 μl (50 mM HEPES, 4 mM Mg-chloride, 0.05% Pluronic F-68, 1.4 mM DTT, 0.5% DMSO, pH 7.7) in the absence or presence of the test compound (10 dilution concentrations) for 90 min at 30° C. The reaction is stopped by the addition of 1 μl 50 mM EDTA solution. 2 μl of the detection solution (1.6 μM SA-Xlent® (Cisbio, Codolet, France), 7.4 nM Anti-GST-K® (Eu-labelled anti-GST, Cisbio, Codolet, France) in 50 mM HEPES, 800 mM KF, 0.1% BSA, 20 mM EDTA, 0.1% CHAPS, pH 7.0) are added. After 1 h incubation at room temperature the HTRF is measured with an Envision multimode reader (Perkin Elmer LAS Germany GmbH) at excitation wavelength 340 nm (laser mode) and emission wavelengths 615 nm and 665 nm. The ratio of the emission signals is determined. The full value used is the inhibitor-free reaction. The pharmacological zero value used is XAV-939 (Tocris) in a final concentration of 5 μM. The inhibitory values (IC50) are determined using either the program Symyx Assay Explorer® or Condosseo® from GeneData.

Tankyrase-2 = molecular target: T2, Tankyrase-2 (Homo sapiens, UniProt Q9H2K2); assay: Tankyrase 2 autoparsylation assay (HTRF enzyme assay); type: biochemical; details: GST-tagged Tankyrase-2 (873-1166 aa)
T2 construct: GST-tagged Tankyrase-2 (873-1166 aa)
Method: as §1, §2, §3

T2 sequence (Q9H2K2 873-1166): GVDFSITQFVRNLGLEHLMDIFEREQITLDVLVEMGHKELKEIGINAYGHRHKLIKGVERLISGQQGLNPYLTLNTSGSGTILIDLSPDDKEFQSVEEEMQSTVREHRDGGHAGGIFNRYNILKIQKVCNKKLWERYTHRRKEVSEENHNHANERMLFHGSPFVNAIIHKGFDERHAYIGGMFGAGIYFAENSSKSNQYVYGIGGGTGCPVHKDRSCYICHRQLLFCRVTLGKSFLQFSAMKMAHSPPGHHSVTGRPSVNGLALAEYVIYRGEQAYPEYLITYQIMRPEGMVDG
T1 sequence (O95271 1023-1327): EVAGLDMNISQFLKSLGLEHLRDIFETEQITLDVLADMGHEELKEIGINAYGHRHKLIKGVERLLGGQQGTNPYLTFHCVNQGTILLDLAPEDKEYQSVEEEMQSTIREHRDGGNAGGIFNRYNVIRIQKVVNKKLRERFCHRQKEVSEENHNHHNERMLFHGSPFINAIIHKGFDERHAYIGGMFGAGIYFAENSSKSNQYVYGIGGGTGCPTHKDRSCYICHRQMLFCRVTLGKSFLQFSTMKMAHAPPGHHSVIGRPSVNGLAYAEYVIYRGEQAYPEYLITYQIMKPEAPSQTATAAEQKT

SMILES	EC50 (tankyrase 1/2)	IC50 (Tankyrase-1)	IC50 (Tankyrase-2)
CC(C)(O)c1ccc(-c2cc3c(F)cc(F)cc3c(=O)[nH]2)cc1 [Compound A33, 5,7-difluoro-3-[4-(1-hydroxy-1-methyl-ethyl)-phenyl]-2H-isoquinolin-1-one]	< 300 nM	< 300 nM	300 to 3000 nM
C=C(C)c1ccc(-c2cc3ccc(F)cc3c(=O)[nH]2)cc1 [Compound A17, 7-fluoro-3-(4-isopropenyl-phenyl)-2H-isoquinolin-1-one]	< 300 nM	< 300 nM	300 to 3000 nM
Cc1ccc(-c2cc3c(C)cccc3c(=O)[nH]2)cc1 [Compound A29, 5-methyl-3-(p-tolyl)-2H-isoquinolin-1-one]	300 to 3000 nM	< 300 nM	300 to 3000 nM
CC(C)(O)c1ccc(-c2cc3ccc(F)cc3c(=O)[nH]2)cc1 [Compound A6, 7-fluoro-3-[4-(1-hydroxy-1-methyl-ethyl)-phenyl]-2H-isoquinolin-1-one]	< 300 nM	< 300 nM	< 300 nM
CC(C)(OCCO)c1ccc(-c2cc3ccc(F)cc3c(=O)[nH]2)cc1 [Compound A16, 7-fluoro-3-{4-[1-(2-hydroxy-ethoxy)-1-methyl-ethyl]-phenyl}-2H-isoquinolin-1-one]	< 300 nM	< 300 nM	< 300 nM
COC(C)(C)c1ccc(-c2cc3ccccc3c(=O)[nH]2)cc1 [Compound A15, 3-[4-(1-methoxy-1-methyl-ethyl)-phenyl]-2H-isoquinolin-1-one]	< 300 nM	< 300 nM	300 to 3000 nM
Cc1ccc(-c2cc3cc(F)ccc3c(=O)[nH]2)cc1 [Compound A10, 6-fluoro-3-p-tolyl-2H-isoquinolin-1-one]	3000 to 50000 nM	300 to 3000 nM	300 to 3000 nM
CC(C)(O)c1ccc(-c2cc3cc(F)ccc3c(=O)[nH]2)cc1 [Compound A5, 6-fluoro-3-[4-(1-hydroxy-1-methyl-ethyl)-phenyl]-2H-isoquinolin-1-one]	300 to 3000 nM	< 300 nM	300 to 3000 nM
Cc1ccc(-c2cc3c(F)cccc3c(=O)[nH]2)cc1 [Compound A12, 5-fluoro-3-p-tolyl-2H-isoquinolin-1-one]	300 to 3000 nM	< 300 nM	300 to 3000 nM
CC(C)(N)c1ccc(-c2cc3ccc(F)cc3c(=O)[nH]2)cc1 [Compound A20, 3-[4-(1-amino-1-methyl-ethyl)phenyl]-7-fluoro-2H-isoquinolin-1-one]	300 to 3000 nM	< 300 nM	< 300 nM
CC(C)(O)c1ccc(-c2cc3ccccc3c(=O)[nH]2)cc1 [Compound A3, 3-[4-(1-hydroxy-1-methyl-ethyl)-phenyl]-2H-isoquinolin-1-one]	< 300 nM	< 300 nM	< 300 nM
CC(C)(O)c1ccc(-c2cc3ccncc3c(=O)[nH]2)cc1 [Compound A24, 3-[4-(1-hydroxy-1-methyl-ethyl)phenyl]-2H-2,7-naphthyridin-1-one]	300 to 3000 nM	< 300 nM	< 300 nM
CC(C)(O)c1ccc(-c2cc3c(F)cccc3c(=O)[nH]2)cc1 [Compound A28, 5-fluoro-3-[4-(1-hydroxy-1-methyl-ethyl)phenyl]-2H-isoquinolin-1-one]	< 300 nM	< 300 nM	< 300 nM
Cn1cc(-c2ccc(-c3cc4ccncc4c(=O)[nH]3)cc2)cn1 [Compound A14, 3-[4-(1-Methyl-1H-pyrazol-4-yl)-phenyl]-2H-[2,7]naphthyridin-1-one]	300 to 3000 nM	< 300 nM	300 to 3000 nM
Cn1cc(-c2ccc(-c3cc4ccc(F)cc4c(=O)[nH]3)cc2)cn1 [Compound A18, 7-fluoro-3-[4-(1-methyl-1H-pyrazol-4-yl)-phenyl]-2H-isoquinolin-1-one]	< 300 nM	< 300 nM	300 to 3000 nM
CC(C)(O)c1ccc(-c2cc3cnccc3c(=O)[nH]2)cc1 [Compound A23, 3-[4-(1-hydroxy-1-methyl-ethyl)phenyl]-2H-2,6-naphthyridin-1-one]	300 to 3000 nM	< 300 nM	< 300 nM
Cc1ccc(-c2cc3ccc(F)cc3c(=O)[nH]2)cc1 [Compound A9, 7-fluoro-3-p-tolyl-2H-isoquinolin-1-one]	300 to 3000 nM	< 300 nM	< 300 nM
CC(C)(O)c1ccc(-c2cc3cccc(F)c3c(=O)[nH]2)cc1 [Compound A27, 8-fluoro-3-[4-(1-hydroxy-1-methyl-ethyl)phenyl]-2H-isoquinolin-1-one]	< 300 nM	< 300 nM	< 300 nM
Cc1ccc(-c2cc3cccc(F)c3c(=O)[nH]2)cc1 [Compound A11, 8-fluoro-3-p-tolyl-2H-isoquinolin-1-one]	300 to 3000 nM	< 300 nM	< 300 nM

— patent US9376433B2, “(AZA-)isoquinolinone derivatives” (MERCK PATENT GMBH, priority 2012, dated 2016)
